Source: the NIST ThermoML archive (doi:10.1016/j.fluid.2004.09.013)

Conditions: for mass density: Fluid (supercritical or subcritical phases), Vibrating tube method; for vapor or sublimation pressure: Liquid

C=CCC [1-butene]
Conditions	mass density [kg/m3]
273.24 K, 612 kPa	619.16
273.24 K, 4987 kPa	624.98
273.24 K, 9990 kPa	631.06
273.24 K, 15004 kPa	636.64
273.24 K, 20005 kPa	641.81
273.24 K, 24989 kPa	646.61
273.24 K, 29996 kPa	651.13
273.24 K, 34991 kPa	655.38
273.24 K, 39998 kPa	659.41
278.25 K, 610 kPa	613.23
278.25 K, 4982 kPa	619.35
278.25 K, 9991 kPa	625.73
278.25 K, 14984 kPa	631.55
278.25 K, 20001 kPa	636.92
278.25 K, 24985 kPa	641.91
278.25 K, 30007 kPa	646.61
278.25 K, 34997 kPa	650.99
278.25 K, 39995 kPa	655.14
283.26 K, 610 kPa	607.22
283.26 K, 4984 kPa	613.69
283.26 K, 9995 kPa	620.39
283.26 K, 15000 kPa	626.47
283.26 K, 19989 kPa	632.05
283.26 K, 24987 kPa	637.22
283.26 K, 30013 kPa	642.08
283.26 K, 35003 kPa	646.62
283.26 K, 39990 kPa	650.88
288.27 K, 611 kPa	601.14
288.27 K, 14998 kPa	621.36
288.28 K, 4990 kPa	607.98
288.28 K, 9997 kPa	615.01
288.28 K, 19990 kPa	627.16
288.28 K, 24993 kPa	632.55
288.28 K, 30009 kPa	637.56
288.28 K, 35002 kPa	642.25
288.28 K, 39995 kPa	646.65
293.29 K, 611 kPa	594.95
293.29 K, 4994 kPa	602.2
293.29 K, 9995 kPa	609.58
293.29 K, 14989 kPa	616.2
293.29 K, 19984 kPa	622.26
293.29 K, 24990 kPa	627.84
293.29 K, 29991 kPa	633.02
293.29 K, 34994 kPa	637.87
293.29 K, 39994 kPa	642.42
298.3 K, 613 kPa	588.66
298.3 K, 4990 kPa	596.33
298.3 K, 10001 kPa	604.11
298.3 K, 14994 kPa	611.04
298.3 K, 19995 kPa	617.35
298.3 K, 24993 kPa	623.14
298.3 K, 30005 kPa	628.51
298.3 K, 35015 kPa	633.51
298.3 K, 40003 kPa	638.19
303.31 K, 661 kPa	582.33
303.31 K, 9983 kPa	598.56
303.31 K, 15001 kPa	605.85
303.31 K, 19987 kPa	612.4
303.31 K, 24994 kPa	618.42
303.31 K, 30008 kPa	623.99
303.31 K, 35004 kPa	629.15
303.32 K, 4995 kPa	590.39
303.32 K, 40006 kPa	633.97
308.32 K, 4985 kPa	584.34
308.32 K, 9991 kPa	592.99
308.32 K, 14996 kPa	600.61
308.32 K, 19992 kPa	607.46
308.32 K, 25004 kPa	613.71
308.32 K, 30007 kPa	619.45
308.32 K, 34999 kPa	624.79
308.32 K, 40000 kPa	629.76
308.33 K, 713 kPa	575.87
313.2 K, 947 kPa	569.83
313.2 K, 4992 kPa	578.34
313.2 K, 9990 kPa	587.43
313.2 K, 14997 kPa	595.4
313.2 K, 19994 kPa	602.53
313.2 K, 24994 kPa	609.01
313.2 K, 30011 kPa	614.95
313.2 K, 35009 kPa	620.44
313.2 K, 39997 kPa	625.59
318.21 K, 1037 kPa	563.26
318.21 K, 5017 kPa	572.17
318.21 K, 10015 kPa	581.78
318.21 K, 15007 kPa	590.11
318.21 K, 20018 kPa	597.56
318.21 K, 25018 kPa	604.28
318.21 K, 30002 kPa	610.4
318.21 K, 35001 kPa	616.07
318.21 K, 39996 kPa	621.35
323.21 K, 1110 kPa	556.48
323.21 K, 9982 kPa	575.95
323.21 K, 14984 kPa	584.73
323.21 K, 25001 kPa	599.51
323.21 K, 30001 kPa	605.88
323.21 K, 34994 kPa	611.74
323.21 K, 40004 kPa	617.19
323.22 K, 5006 kPa	565.82
323.22 K, 19997 kPa	592.52
328.22 K, 1187 kPa	549.53
328.22 K, 4989 kPa	559.32
328.22 K, 9998 kPa	570.14
328.22 K, 14996 kPa	579.36
328.22 K, 19992 kPa	587.47
328.22 K, 25011 kPa	594.75
328.22 K, 30003 kPa	601.33
328.22 K, 34986 kPa	607.37
328.22 K, 40001 kPa	613
333.22 K, 1276 kPa	542.42
333.22 K, 4994 kPa	552.72
333.22 K, 10001 kPa	564.22
333.22 K, 14993 kPa	573.92
333.22 K, 20000 kPa	582.4
333.22 K, 24986 kPa	589.92
333.22 K, 29987 kPa	596.76
333.22 K, 35007 kPa	603.04
333.22 K, 40005 kPa	608.82
338.22 K, 1372 kPa	535.11
338.22 K, 4996 kPa	545.96
338.22 K, 9985 kPa	558.18
338.22 K, 14991 kPa	568.42
338.22 K, 19988 kPa	577.27
338.22 K, 25002 kPa	585.14
338.22 K, 29995 kPa	592.2
338.22 K, 34993 kPa	598.67
338.22 K, 39988 kPa	604.63
343.22 K, 1477 kPa	527.59
343.22 K, 4989 kPa	538.99
343.22 K, 9987 kPa	552.06
343.22 K, 14985 kPa	562.84
343.22 K, 19995 kPa	572.12
343.22 K, 24993 kPa	580.29
343.22 K, 29995 kPa	587.63
343.22 K, 34993 kPa	594.3
343.22 K, 39996 kPa	600.44
348.22 K, 9989 kPa	545.85
348.22 K, 24986 kPa	575.42
348.23 K, 1592 kPa	519.85
348.23 K, 4984 kPa	531.84
348.23 K, 14988 kPa	557.22
348.23 K, 20000 kPa	566.94
348.23 K, 29995 kPa	583.02
348.23 K, 35000 kPa	589.94
348.23 K, 39996 kPa	596.25
353.23 K, 1715 kPa	511.85
353.23 K, 4999 kPa	524.53
353.23 K, 9991 kPa	539.5
353.23 K, 14992 kPa	551.53
353.23 K, 19991 kPa	561.68
353.23 K, 24984 kPa	570.52
353.23 K, 30003 kPa	578.41
353.23 K, 34996 kPa	585.54
353.23 K, 40004 kPa	592.05
358.23 K, 1846 kPa	503.54
358.23 K, 4995 kPa	516.91
358.23 K, 9989 kPa	533.03
358.23 K, 14984 kPa	545.76
358.23 K, 19997 kPa	556.43
358.23 K, 25002 kPa	565.63
358.23 K, 30007 kPa	573.81
358.23 K, 34991 kPa	581.14
358.23 K, 39997 kPa	587.85
363.23 K, 1991 kPa	494.93
363.23 K, 4996 kPa	509.02
363.23 K, 9987 kPa	526.43
363.23 K, 14995 kPa	539.91
363.23 K, 19993 kPa	551.05
363.23 K, 24987 kPa	560.63
363.23 K, 29994 kPa	569.1
363.23 K, 35013 kPa	576.7
363.23 K, 39993 kPa	583.59
368.23 K, 2145 kPa	485.95
368.23 K, 4994 kPa	500.81
368.23 K, 10001 kPa	519.71
368.23 K, 15000 kPa	534.01
368.23 K, 19992 kPa	545.69
368.23 K, 24989 kPa	555.66
368.23 K, 29994 kPa	564.43
368.23 K, 34993 kPa	572.27
368.23 K, 39995 kPa	579.38
373.23 K, 2313 kPa	476.57
373.23 K, 10000 kPa	512.83
373.23 K, 19991 kPa	540.27
373.23 K, 24984 kPa	550.66
373.23 K, 30002 kPa	559.76
373.23 K, 35005 kPa	567.88
373.23 K, 39997 kPa	575.19
373.24 K, 5000 kPa	492.29
373.24 K, 15001 kPa	528.02
378.23 K, 4992 kPa	483.29
378.23 K, 40004 kPa	571.03
378.24 K, 2492 kPa	466.71
378.24 K, 9989 kPa	505.75
378.24 K, 14998 kPa	521.94
378.24 K, 20001 kPa	534.83
378.24 K, 24999 kPa	545.69
378.24 K, 30000 kPa	555.11
378.24 K, 35012 kPa	563.49
383.24 K, 2679 kPa	456.23
383.24 K, 5001 kPa	473.89
383.24 K, 9994 kPa	498.55
383.24 K, 14998 kPa	515.79
383.24 K, 19999 kPa	529.35
383.24 K, 24986 kPa	540.63
383.24 K, 29986 kPa	550.4
383.24 K, 34993 kPa	559.06
383.24 K, 39986 kPa	566.81
388.24 K, 2883 kPa	445.15
388.24 K, 4993 kPa	463.82
388.24 K, 9989 kPa	491.12
388.24 K, 14987 kPa	509.52
388.24 K, 20000 kPa	523.81
388.24 K, 24990 kPa	535.58
388.24 K, 29995 kPa	545.72

Conditions	vapor or sublimation pressure [kPa]
289.42 K	225.85
294 K	260.86
301.73 K	329.59
306.48 K	378.14
315.34 K	484.39
321.69 K	572.17
329.51 K	695.71
337.04 K	833.9
337.68 K	845.55
345.48 K	1009.7
353.71 K	1207.9
358.53 K	1337.5
361.4 K	1416.5
366.99 K	1590.4
367.1 K	1594.8
379.44 K	2014.2
386.99 K	2310.4
